Entries after “also recorded” stand apart in the source; their conditions may differ.
Assays:
beta-lactamase = conditions: cited from earlier work
[1] = molecular target: T1, cytosolic beta-lactamase reporter enzyme (Escherichia coli, UniProt P62593); test: Inhibition of cytosolic beta-lactamase reporter activity in live Jurkat cells, CMV promoter (Example II); format: cell-based; conditions: 300 μM inhibitor, one hour at 37° C.
T1 construct: CCF2/AM read-out
Method: (§1) One day before the assay, CHO cells (an adherent cell line) expressing a cytosolic beta-lactamase reporter gene (WO 96/30540 to Tsien et al., published Oct. 3, 1996)) under control of a G-protein coupled receptor (GPCR) were plated in six clear-bottom 96-well microtiter plates at 75% confluency. The cells in half of the wells were stimulated overnight with agonist to the GPCR. Thus, these cells expressed high levels of the reporter enzyme encoded by the reporter gene. The other half of the cells were maintained without agonist in media having dialyzed fetal calf serum. This population is representative of cells with only background levels of beta-lactamase expression. […] After thirty minutes of incubation, the fluorescence from the wells was determined using a microtiter plate fluorimeter with excitation at 395/20nm and emission at 460/40nm and 530/30nm. The raw fluorescence emission values were corrected for the signal from wells without cells. […]
Jurkat cells (a non-adherent cell line) expressing a cytosolic beta-lactamase reporter enzyme (WO 96/30540 to Tsien et al., published Oct. 3, 1996) under the control of the constitutively active cytomegalovirus early promoter (CMV promoter) were incubated with three inhibitors: clavulanic acid, imipenem and HOB-1-70. […] Cells were treated for one hour at 37° C., after which beta-lactamase reporter activity was assessed as in Example I (FIG. 2).

[2] = molecular target: T1, cytosolic beta-lactamase reporter enzyme; test: Agonist titration in CHO GPCR reporter cells with or without inhibitor pretreatment (Example VI); format: cell-based
[3] = tested on: cytosolic beta-lactamase activity; test: Background versus de novo beta-lactamase activity in CHO GPCR reporter cells after inhibitor pretreatment (Example V); format: cell-based; conditions: 300 μM clavulanic acid sixteen hours, washed, unstimulated, three hours
Method: as §1, with “expression. These unstimulated cells expressed the reporter enzyme at levels lower than in the stimulated cells. After sixteen hours, the media was removed, the stimulated cells and the unstimulated cells were washed once by replacing the culture media by […] (BSA). Because CHO cells are adherent, aspiration is the preferred method of removing culture media, which is then replaced with wash media or wash solution.” for “expression.”

cytosolic beta-lactamase = molecular target: T2, cytosolic beta-lactamase (Escherichia coli, UniProt P62593); test: Inhibitor added together with CCF2/AM in CHO nuclear receptor beta-lactamase reporter cells (Example IX); format: cell-based
T2 construct: CCF2/AM read-out
T2 sequence (P62593 24-286 limits assumed): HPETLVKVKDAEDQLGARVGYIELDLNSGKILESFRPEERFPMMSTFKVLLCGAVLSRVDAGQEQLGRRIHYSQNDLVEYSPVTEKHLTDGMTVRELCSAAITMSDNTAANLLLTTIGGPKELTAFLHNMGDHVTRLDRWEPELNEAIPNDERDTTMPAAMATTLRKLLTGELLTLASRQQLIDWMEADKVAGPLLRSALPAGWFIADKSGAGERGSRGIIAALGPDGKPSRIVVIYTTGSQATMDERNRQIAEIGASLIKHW

[4] = tested on: cytosolic beta-lactamase reporter; test: Wash-out of inhibitor from Jurkat C2 cells (M1 receptor, NF-AT beta-lactamase reporter) (Example III); format: cell-based
Method: as §1
These studies used a Jurkat cell clone (referred to as "C2 cells" ) containing the M1 -receptor and a cytosolic beta-lactamase reporter gene (WO 96/30540 to Tsien et al., published Oct. 3, 1996)) regulated by a NF-AT response element. […] Higher beta-lactamase activity was detected in the cells as the time after the inhibitor was washed out of the cells increased.

[5] = molecular target: T1, cytosolic beta-lactamase reporter enzyme; test: Irreversibility of intracellular beta-lactamase inhibition in CHO GPCR reporter cells (Example IV); format: cell-based; conditions: washed
[6] = tested on: background beta-lactamase activity (cytosolic); test: Background beta-lactamase activity in CHO reporter cells after blocking enzyme synthesis (Example I); format: cell-based; conditions: 40 μg/ml cycloheximide, low and high expressing CHO cells, even after 5 hours
Method: as §1, with “expression. These unstimulated cells expressed the reporter enzyme at levels lower than in the stimulated cells. After sixteen hours, the media was removed, the stimulated cells and the unstimulated cells were washed once by replacing the culture media by aspiration with an equal volume of phosphate buffered saline and then treated with 40 μg/ml cycloheximide in RPMI medium 1640 with 0.1% bovine serum albumin (BSA).” for “expression.”

T1 sequence (P62593 24-286 limits assumed): as above

SMILES	molecules of inhibitor hydrolyzed on average before the beta-lactamase is irreversibly inactivated (beta-lactamase; beta-lactamase used in the cell based assays, source not given)	reversibility of beta-lactamase inhibition (beta-lactamase; literature (Bulychev et al. 1995; Knowles 1985))	reduction of cytosolic beta-lactamase reporter activity [1]	background beta-lactamase activity in agonist assay ([2]; CHO cells pretreated with 300 μM clavulanic acid sixteen hours, washed, three hours agonist)	signal-to-noise ratio of agonist assay ([2]; cells pretreated with clavulanic acid versus untreated)	background beta-lactamase reporter activity after pretreatment [3]	ratio of fluorescence from stimulated cells over unstimulated cells (cytosolic beta-lactamase; 16.7 microμ clavulanic acid present)	improvement in signal-to-noise ratio (cytosolic beta-lactamase; 16.7 microμ clavulanic acid versus absence of inhibitor)	background (unstimulated) ratio levels (cytosolic beta-lactamase; CHO nuclear receptor reporter cells, 16.7 microμ clavulanic acid present during CCF2/AM loading)	beta-lactamase activity in stimulated cells (cytosolic beta-lactamase; agonist-stimulated CHO cells, 16.7 microμ clavulanic acid present during CCF2/AM loading)	beta-lactamase activity, no-wash control ([4]; 100 microM clavulanic acid for sixteen hours, inhibitor present throughout, with or without 100 microM carbacol)	de novo beta-lactamase activity after wash-out of inhibitor ([4]; 100 microM clavulanic acid sixteen hours, washed once, 0-3 hours after wash, then 100 microM carbacol for three hours)	persistence of inhibition of intracellular beta-lactamase reporter enzyme ([5]; 300 μM clavulanic acid pretreatment, cycloheximide)	ratio values (460/40nm over 530/30nm emission) ([5]; 300 μM clavulanic acid sixteen hours, 40 μg/ml cycloheximide, low and high expressing cells, even after five hours)	ratio values (460/40nm over 530/30nm emission) [6]
O=C(O)[C@H]1/C(=C/CO)O[C@@H]2CC(=O)N21 [clavulanic acid]	about 100 molecules	irreversible	reduced the reduced beta-lactamase activity in these cells to levels found in cells that do not have the reporter; also recorded: essentially reduced reporter beta-lactamase activity to values found for a naive Jurkat population	much lower	the signal-to-noise ratio was improved	effective means of lowering the background beta-lactamase reporter activity; also recorded: readily inhibited	32 fold	almost a three-fold improvement	0.090±0.015	did not change significantly	beta-lactamase activity, both residual and synthesized de novo, was reduced	Stimulation of cells, even immediately after the wash, results in de novo synthesis of beta-lactamase that can be detected	irreversibly inhibited; also recorded: remains inhibited for at least five hours	about 0.2	–
C[C@@H]1C[C@@H]([C@H](O)CC2CC(=O)NC(=O)C2)C(=O)[C@@H](C)C1 [cycloheximide]	–	–	–	–	–	–	–	–	–	–	–	–	–	–	above 0.2
C[C@@H](O)[C@H]1C(=O)N2C(C(=O)O)=C(SCCN=CN)C[C@H]12 [imipenem]	–	–	did not have a similar effect	–	–	–	–	–	–	–	–	–	–	–	–
